In brackets after ≈: the same amount, converted by molar mass. Like-named read-outs stand apart in the source and are kept apart here. Peptide text beside a SMILES is read from it.
Assays:
[1] = tested on: E. coli (colistin-resistant); assay: MIC, colistin-resistant E. coli clinical isolates, with and without otilonium bromide; assay type: cell-based; conditions: Escherichia coli
[2] = tested on: mcr-1-bearing E. coli J53; assay: microbe, parasite or virus in culture; assay type: cell-based; conditions: 20 μg/ml of otilonium bromide
From the text: E. coli J53 strain carrying a natural mcr-1-bearing IncI2 plasmid (33 kb, KX711706.1) is used to screen and identify colistin adjuvants which could enhance the antibacterial activity of colistin.

CCC(C)CCCC(=O)N[C@@H](CCN)C(=O)N[C@H](C(=O)N[C@@H](CCN)C(=O)N[C@H]1CCNC(=O)[C@H]([C@@H](C)O)NC(=O)[C@H](CCN)NC(=O)[C@H](CCN)NC(=O)[C@H](CC(C)C)NC(=O)[C@@H](CC(C)C)NC(=O)[C@H](CCN)NC1=O)[C@@H](C)O (stereo partly drawn) [Colistin] (HELM PEPTIDE1{[CCC(C)CCCC(=O)[*:2]].[Dab].T.[Dab].[Dab].[Dab].[dL].L.[Dab].[Dab].T}$PEPTIDE1,PEPTIDE1,5:R3-11:R2$$$V2.0)
MIC ([1]; E. coli 34650, colistin-resistant, colistin alone, read-out: Colistin MIC, Colistin): 8 µg/mL (≈ 6.92 µM) | MIC ([1]; E. coli 34650, colistin-resistant, in the presence of 10 ug/ml Ob, read-out: Colistin MIC, Colistin + 10 ug/ml Ob): 2 µg/mL | MIC ([1]; E. coli 34650, colistin-resistant, in the presence of 20 ug/ml Ob, read-out: Colistin MIC, Colistin + 20 ug/ml Ob): 0.5 µg/mL | MIC ([1]; E. coli CX48, colistin-resistant, colistin alone, read-out: Colistin MIC, Colistin): 8 µg/mL (≈ 6.92 µM) | MIC ([1]; E. coli CX48, colistin-resistant, in the presence of 10 ug/ml Ob, read-out: Colistin MIC, Colistin + 10 ug/ml Ob): 4 µg/mL | MIC ([1]; E. coli CX48, colistin-resistant, in the presence of 20 ug/ml Ob, read-out: Colistin MIC, Colistin + 20 ug/ml Ob): 1 µg/mL | MIC ([1]; E. coli CX53, colistin-resistant, colistin alone, read-out: Colistin MIC, Colistin): 8 µg/mL (≈ 6.92 µM) | MIC ([1]; E. coli CX53, colistin-resistant, in the presence of 10 ug/ml Ob, read-out: Colistin MIC, Colistin + 10 ug/ml Ob): 4 µg/mL | MIC ([1]; E. coli CX53, colistin-resistant, in the presence of 20 ug/ml Ob, read-out: Colistin MIC, Colistin + 20 ug/ml Ob): 2 µg/mL | MIC ([1]; E. coli CX116, colistin-resistant, colistin alone, read-out: Colistin MIC, Colistin): 2 µg/mL (≈ 1.73 µM) | MIC ([1]; E. coli CX116, colistin-resistant, in the presence of 10 ug/ml Ob, read-out: Colistin MIC, Colistin + 10 ug/ml Ob): ≤ 0.25 µg/mL | MIC ([1]; E. coli CX116, colistin-resistant, in the presence of 20 ug/ml Ob, read-out: Colistin MIC, Colistin + 20 ug/ml Ob): ≤ 0.25 µg/mL | MIC ([1]; E. coli WZ2431, colistin-resistant, colistin alone, read-out: Colistin MIC, Colistin): 8 µg/mL (≈ 6.92 µM) | MIC ([1]; E. coli WZ2431, colistin-resistant, in the presence of 10 ug/ml Ob, read-out: Colistin MIC, Colistin + 10 ug/ml Ob): 2 µg/mL | MIC ([1]; E. coli WZ2431, colistin-resistant, in the presence of 20 ug/ml Ob, read-out: Colistin MIC, Colistin + 20 ug/ml Ob): 0.5 µg/mL | MIC ([1]; E. coli WZ2909, colistin-resistant, colistin alone, read-out: Colistin MIC, Colistin): 16 µg/mL (≈ 13.8 µM) | MIC ([1]; E. coli WZ2909, colistin-resistant, in the presence of 10 ug/ml Ob, read-out: Colistin MIC, Colistin + 10 ug/ml Ob): 8 µg/mL | MIC ([1]; E. coli WZ2909, colistin-resistant, in the presence of 20 ug/ml Ob, read-out: Colistin MIC, Colistin + 20 ug/ml Ob): 1 µg/mL | MIC ([1]; E. coli WZ3903, colistin-resistant, colistin alone, read-out: Colistin MIC, Colistin): 4 µg/mL (≈ 3.46 µM) | MIC ([1]; E. coli WZ3903, colistin-resistant, in the presence of 10 ug/ml Ob, read-out: Colistin MIC, Colistin + 10 ug/ml Ob): ≤ 0.25 µg/mL | MIC ([1]; E. coli WZ3903, colistin-resistant, in the presence of 20 ug/ml Ob, read-out: Colistin MIC, Colistin + 20 ug/ml Ob): ≤ 0.25 µg/mL | MIC ([1]; E. coli WZ3906, colistin-resistant, colistin alone, read-out: Colistin MIC, Colistin): 8 µg/mL (≈ 6.92 µM) | MIC ([1]; E. coli WZ3906, colistin-resistant, in the presence of 10 ug/ml Ob, read-out: Colistin MIC, Colistin + 10 ug/ml Ob): 4 µg/mL | MIC ([1]; E. coli WZ3906, colistin-resistant, in the presence of 20 ug/ml Ob, read-out: Colistin MIC, Colistin + 20 ug/ml Ob): 1 µg/mL | MIC ([1]; E. coli WZ3920, colistin-resistant, colistin alone, read-out: Colistin MIC, Colistin): 4 µg/mL (≈ 3.46 µM) | MIC ([1]; E. coli WZ3920, colistin-resistant, in the presence of 10 ug/ml Ob, read-out: Colistin MIC, Colistin + 10 ug/ml Ob): 2 µg/mL | MIC ([1]; E. coli WZ3920, colistin-resistant, in the presence of 20 ug/ml Ob, read-out: Colistin MIC, Colistin + 20 ug/ml Ob): ≤ 0.25 µg/mL | MIC ([1]; E. coli WZ3951, colistin-resistant, colistin alone, read-out: Colistin MIC, Colistin): 16 µg/mL (≈ 13.8 µM) | MIC ([1]; E. coli WZ3951, colistin-resistant, in the presence of 10 ug/ml Ob, read-out: Colistin MIC, Colistin + 10 ug/ml Ob): 8 µg/mL | MIC ([1]; E. coli WZ3951, colistin-resistant, in the presence of 20 ug/ml Ob, read-out: Colistin MIC, Colistin + 20 ug/ml Ob): 2 µg/mL | MIC ([1]; E. coli WZ3955, colistin-resistant, colistin alone, read-out: Colistin MIC, Colistin): 8 µg/mL (≈ 6.92 µM) | MIC ([1]; E. coli WZ3955, colistin-resistant, in the presence of 10 ug/ml Ob, read-out: Colistin MIC, Colistin + 10 ug/ml Ob): 4 µg/mL | MIC ([1]; E. coli WZ3955, colistin-resistant, in the presence of 20 ug/ml Ob, read-out: Colistin MIC, Colistin + 20 ug/ml Ob): 1 µg/mL | MIC ([1]; E. coli X2169, colistin-resistant, colistin alone, read-out: Colistin MIC, Colistin): 16 µg/mL (≈ 13.8 µM) | MIC ([1]; E. coli X2169, colistin-resistant, in the presence of 10 ug/ml Ob, read-out: Colistin MIC, Colistin + 10 ug/ml Ob): 4 µg/mL | MIC ([1]; E. coli X2169, colistin-resistant, in the presence of 20 ug/ml Ob, read-out: Colistin MIC, Colistin + 20 ug/ml Ob): 2 µg/mL | MIC ([2]; Escherichia coli, read-out: colistin MIC (minimum inhibitory concentration), mcr-1-bearing E. coli J53): 0.28 µg/mL (≈ 0.242 µM) | reduction in colistin MIC ([2]; mcr-1-bearing E. coli J53): 32 fold
